# Read-outs that look alike come from different tables or passages of the source.
# Experiments:
# PBP B = PBP B (Mycobacterium abscessus, UniProt B1MP31); test: Steady-state kinetics with nitrocefin (Ki,app); assay type: biochemical; settings: for Ratio of fCss,avg to Ki,app, PBP B: in parentheses in Table 3;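 on Ratio of fCss,avg to Ki,app, PBP B: Parenthesised value is the fCss,avg to Ki,app ratio where above 1 means target likely hit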
# Experimental: (§1) Steady-state kinetic studies were conducted using purified LDTs and PBPs (LDT1-5, PBP B, PBP-lipo, and DDC) as previously described ([20]). The assays were performed using a BioTek Synergy2 multimode reader in conjunction with Gen5 analysis software. […] To determine reaction velocities, a 0.25 cm path length was employed. The steady-state kinetic parameters (Vmax, kcat, and Km) were obtained by fitting the data to the Henri-Michaelis-Menten equation using a nonlinear least-squares fit in Origin 8.1 software (OriginLab, Northampton, MA). The reaction rate (v) at a given substrate concentration ([S]) was calculated according to the following equations: […]
# (§2) Changes in absorbance at 482 nm were measured over a period of 0–30 min for each concentration of β-lactams and BLIs. Data were linearized using a Dixon plot, plotting the inverse changes in absorbance (1/ΔA) against the concentrations of β-lactams and BLIs. The observed Ki,app was determined directly from the Dixon plot, and these values were corrected for substrate concentration and affinity for the LDT using the following equation:
# (§3) Ki,app=observed Ki,app/1+[NCF]/Km NCF
# PBP-lipo = molecular target: T1, PBP-lipo (Mycobacteroides abscessus, UniProt B1MDC3); test: Bocillin-FL binding assay; settings: 2 h incubation, 1:10 molar ratio
# T1 construct: made in house; host or cells: Escherichia coli BL21 (DE3)
# Experimental: To analyze the binding of PBP-lipo with β-lactams or BLIs, purified PBP-lipo (4 µg) was incubated with β-lactams or BLIs at a 1:10 molar ratio in a buffer containing 10 mM sodium phosphate (pH 7.4) and 150 mM NaCl. The incubation was carried out for 2 h at room temperature. After the initial incubation, 1 µM Bocillin FL was added to the reaction mixture. The incubation was continued for an additional 3–4 h at 37°C. After incubation, the samples were boiled to denature the proteins. The samples were then subjected to SDS-PAGE. The PBP-lipo:Bocillin complexes were visualized by fluorescence analysis at a wavelength of 488 nm using an Azure 300 gel imaging system. The intensity of the PBP-lipo:Bocillin complex bands was analyzed using GelAnalyzer software. The intensity of the band for PBP-lipo alone (without β-lactams) was set to 1 as the highest intensity. The intensity of each band for PBP-lipo incubated with β-lactams was then normalized by dividing by the intensity of the band for PBP-lipo alone.
# [1] = test system: Mycobacterium abscessus ATCC 19977 strain; test: Morphological changes by flow cytometry and confocal microscopy; assay type: cell-based; settings: clinically relevant unbound concentrations (fCss,ave), 24 h
# Experimental: Flow cytometry was employed to evaluate morphological changes in individual bacterial cells following PBP-lipo inactivation after 24 h of β-lactam treatment. The bacterial cells were stained using the BacLight kit L7012 (Thermo Fisher Scientific, Waltham, MA), containing SYTO 9 and propidium iodide (PI). Analysis was performed using a CytoFLEX flow cytometer (Beckman Coulter, CA), with data processed using CytExpert software.
# Bacterial morphological changes resulting from PBP-lipo inactivation were investigated using an ImageXpress Micro Confocal Microscope (Molecular Devices, CA). The staining procedures applied to the samples mirrored those used for flow cytometry. Stained bacterial cells were placed in optically clear flat-bottom 96-well plates, and observations were conducted at 60× magnification. Cell length measurements were obtained through automated image analysis using MetaXpress 6 software.
# LDT3 = LDT3 (Mycobacterium abscessus, UniProt B1MHQ4); test: Mass spectrometry of covalent adduct formation; assay type: binding; settings: protein:drug 1:20, 2 h; mass accuracy ±5 Da; (−) = no change
# Experimental: (§4) Truncated sequences of LDT1-5, DDC, PBP B, and PBP-lipo (Δ1–41) were generated by Celtek Biosciences and cloned into the pET28(a) + vector with a tobacco etch virus (TEV) protease cleavage site before the start codon. Clones were transformed into Escherichia coli BL21 (DE3) and grown to an OD600 of 0.6–0.8. Protein expression was induced with 0.25 mM isopropyl β-d-1-thiogalactopyranoside (IPTG) and incubated for 18 h at 18°C. Cell pellets were collected and stored at −20°C overnight, then resuspended in a buffer containing 50 mM Tris (pH 8.0), 400 mM sodium chloride, and 1 mM Tris (2-carboxyethyl) phosphine hydrochloride (TCEP), followed by sonication and centrifugation. The supernatant was purified using a His Prep FF 16/10 column (GE Healthcare) and eluted with 500 mM imidazole. Eluted protein was dialyzed overnight at 4°C in a buffer with 50 mM Tris (pH 8.0), 150 mM sodium chloride, and 0.5 mM TCEP in the presence of His-tagged TEV protease. To remove the His tag, the mixture was passed over the His Prep FF 16/10 column again.
# (§5) The purified proteins listed above were incubated at room temperature with β-lactams or BLIs at a molar ratio of 1:20 for 2 h. The reactions were then quenched with acetonitrile and diluted to 1 mL with 0.1% formic acid in water. Samples were analyzed using a quadrupole time-of-flight (Q-TOF) Waters Synapt-G2-Si electrospray ionization mass spectrometer (ESI-MS) and a Waters Acquity H class ultra-performance liquid chromatography (UPLC) system, equipped with a BEH C18 1.7 µm column (2.1 × 50 mm). The MS was tuned with the following settings: capillary voltage set at 3 kV, sampling cone at 35 V, source offset at 35, source temperature of 100°C, desolvation temperature of 500°C, cone gas flow rate at 100 L/h, desolvation gas flow rate at 800 L/h, and nebulizer set at 6.0. The mobile phases consisted of 0.1% formic acid in water and 0.1% formic acid in 100% acetonitrile, with gradient elution from 10% to 90% of […] over 11 min. The system’s mass accuracy was ±5 Da.
# Mab ATCC 19977 strain = test: MIC testing (CLSI, Middlebrook 7H9 broth); assay type: cell-based, Mycobacterium abscessus; settings: for MIC: Mycobacteroides abscessus, ATCC19977, Mab ATCC 19977, no BLI added, 30°C, 48 h, read-out: MIC, alone; for MIC, + DUR + SUL (1:1): durlobactam, sulbactam and test β-lactam all at the same concentration; for MIC, + AVI (4 mg/L): fixed avibactam 4 mg/L; for MIC, + DUR + SUL (1 mg/L): fixed durlobactam 1 mg/L + sulbactam 1 mg/L
# DDC = DDC (Mycobacteroides abscessus, UniProt B1MDJ1); test: Steady-state kinetics with nitrocefin (Ki,app); assay type: biochemical; settings: in parentheses in Table 3;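 further: Parenthesised value is the fCss,avg to Ki,app ratio where above 1 means target likely hit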
# Experimental: as §1, §2, §3
# LDT2 = LDT2 (Mycobacterium abscessus, UniProt B1MMQ4); test: Mass spectrometry of covalent adduct formation; assay type: binding; settings: protein:drug 1:20, 2 h; mass accuracy ±5 Da; (−) = no change
# Experimental: as §4, §5
# [2] = nitrocefin at 5 × Km, read-out: Ki,app PBP B (converted)
# [3] = read-out: Ki,app PBP B (converted)
# Sequence of DDC (B1MDJ1 entry or part of it): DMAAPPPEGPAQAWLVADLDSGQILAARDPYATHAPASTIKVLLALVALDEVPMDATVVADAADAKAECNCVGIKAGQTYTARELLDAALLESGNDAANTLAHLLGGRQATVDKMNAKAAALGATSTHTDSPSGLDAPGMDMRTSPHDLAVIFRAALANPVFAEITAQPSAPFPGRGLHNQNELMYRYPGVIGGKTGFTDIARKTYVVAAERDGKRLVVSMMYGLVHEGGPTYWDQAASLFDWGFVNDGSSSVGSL
# Sequence of LDT2 (B1MMQ4 entry or part of it): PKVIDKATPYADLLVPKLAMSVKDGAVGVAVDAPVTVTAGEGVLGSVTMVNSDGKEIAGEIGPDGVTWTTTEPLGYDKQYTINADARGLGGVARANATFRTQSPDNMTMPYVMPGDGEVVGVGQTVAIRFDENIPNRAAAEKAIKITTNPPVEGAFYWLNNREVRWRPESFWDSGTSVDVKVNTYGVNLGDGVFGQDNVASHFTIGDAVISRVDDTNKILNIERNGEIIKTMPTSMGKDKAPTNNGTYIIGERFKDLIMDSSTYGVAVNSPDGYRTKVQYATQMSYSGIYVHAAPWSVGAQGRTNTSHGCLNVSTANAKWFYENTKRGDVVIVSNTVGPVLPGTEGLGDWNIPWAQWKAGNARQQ
# Sequence of LDT3 (B1MHQ4 entry or part of it): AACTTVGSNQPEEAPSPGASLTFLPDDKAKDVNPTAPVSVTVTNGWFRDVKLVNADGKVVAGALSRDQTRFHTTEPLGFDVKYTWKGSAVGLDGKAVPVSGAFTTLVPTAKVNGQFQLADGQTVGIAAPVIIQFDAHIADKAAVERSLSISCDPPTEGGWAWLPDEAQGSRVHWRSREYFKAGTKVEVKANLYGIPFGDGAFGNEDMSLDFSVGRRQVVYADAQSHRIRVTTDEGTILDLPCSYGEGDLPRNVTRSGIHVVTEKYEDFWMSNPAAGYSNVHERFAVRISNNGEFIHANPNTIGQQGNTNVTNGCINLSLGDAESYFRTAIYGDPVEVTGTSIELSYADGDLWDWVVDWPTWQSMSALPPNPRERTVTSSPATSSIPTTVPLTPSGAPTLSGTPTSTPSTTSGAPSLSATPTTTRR
# Sequence of PBP B (B1MP31 entry or part of it): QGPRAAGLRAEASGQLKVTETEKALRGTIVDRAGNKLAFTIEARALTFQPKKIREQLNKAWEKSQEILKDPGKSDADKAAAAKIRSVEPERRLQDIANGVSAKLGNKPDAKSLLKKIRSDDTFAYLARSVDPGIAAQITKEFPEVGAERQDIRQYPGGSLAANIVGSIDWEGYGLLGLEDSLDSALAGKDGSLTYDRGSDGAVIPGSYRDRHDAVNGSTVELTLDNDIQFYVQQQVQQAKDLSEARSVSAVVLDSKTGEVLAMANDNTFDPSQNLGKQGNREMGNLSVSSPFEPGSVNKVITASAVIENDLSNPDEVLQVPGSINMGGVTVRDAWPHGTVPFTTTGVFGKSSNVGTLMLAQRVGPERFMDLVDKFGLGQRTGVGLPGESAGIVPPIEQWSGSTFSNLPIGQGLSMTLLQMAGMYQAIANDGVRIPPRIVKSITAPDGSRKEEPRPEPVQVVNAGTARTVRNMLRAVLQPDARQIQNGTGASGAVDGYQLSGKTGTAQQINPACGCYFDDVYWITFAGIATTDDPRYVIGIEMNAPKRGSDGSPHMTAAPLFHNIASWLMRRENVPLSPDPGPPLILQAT
# T1 sequence (B1MDC3 entry or part of it): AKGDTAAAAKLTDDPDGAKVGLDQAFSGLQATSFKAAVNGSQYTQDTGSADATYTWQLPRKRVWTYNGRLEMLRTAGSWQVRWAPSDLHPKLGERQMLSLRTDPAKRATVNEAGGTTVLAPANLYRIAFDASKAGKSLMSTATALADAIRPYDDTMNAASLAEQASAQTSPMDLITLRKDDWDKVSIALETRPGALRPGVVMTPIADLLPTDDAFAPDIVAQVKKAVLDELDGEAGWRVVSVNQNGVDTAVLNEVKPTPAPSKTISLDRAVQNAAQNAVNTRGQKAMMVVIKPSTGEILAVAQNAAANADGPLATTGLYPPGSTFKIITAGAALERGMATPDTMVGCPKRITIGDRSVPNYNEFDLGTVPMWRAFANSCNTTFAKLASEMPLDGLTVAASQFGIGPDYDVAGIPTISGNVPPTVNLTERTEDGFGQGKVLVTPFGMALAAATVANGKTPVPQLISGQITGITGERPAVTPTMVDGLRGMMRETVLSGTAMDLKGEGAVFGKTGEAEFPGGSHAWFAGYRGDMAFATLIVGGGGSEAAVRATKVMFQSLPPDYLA
Structure (SMILES),Ki (PBP B),Binding to PBP-lipo (Bocillin-FL competition) (PBP-lipo),Morphological change of Mab cells [1],"Observed MW (+ change in mw), LDT3 (44,795) (LDT3)",MIC (Mab ATCC 19977 strain),"MIC, + DUR + SUL (1:1) (Mab ATCC 19977 strain)","MIC, + AVI (4 mg/L) (Mab ATCC 19977 strain)","MIC, + DUR + SUL (1 mg/L) (Mab ATCC 19977 strain)","Ratio of fCss,avg to Ki,app, PBP B (PBP B)",Ki (PBP B; [2]),"Ratio of fCss,avg to Ki,app, DDC (DDC)","Observed MW (+ change in mw), LDT2 (39,216) (LDT2)",Ki (PBP B; [3])
"CC1(C)S[C@@H]2[C@H](NC(=O)[C@H](N)c3ccc(O)cc3)C(=O)N2[C@H]1C(=O)O [Amoxicillin, amoxicillin]",7.39 µM,demonstrated binding to PBP-lipo,does not induce any morphological changes,"44,794 (−) Da",128 µg/mL,1 µg/mL,32 µg/mL,1 µg/mL,–,–,–,–,–
"NC(=O)[C@@H]1CC[C@@H]2CN1C(=O)N2OS(=O)(=O)O [Avibactam, avibactam]",–,demonstrated binding to PBP-lipo,did not induce noticeable morphological changes,"44,794 (−) Da",> 128 µg/mL,–,–,–,0.6,33.9 µM,0.1,"39,482 (+266) Da",–
"CO/N=C(\C(=O)N[C@@H]1C(=O)N2C(C(=O)O)=C(COC(N)=O)CS[C@H]12)c1ccco1 [Cefuroxime, cefuroxime]",–,demonstrated binding to PBP-lipo,did not induce noticeable morphological changes,"44,794 (−) Da",4 µg/mL,1 µg/mL,4 µg/mL,2 µg/mL,3 (4),–,0.05 (240),"39,597 (+381) Da",7.07 µM
"CC1=C[C@@H]2CN(C(=O)N2OS(=O)(=O)O)[C@@H]1C(N)=O [Durlobactam, durlobactam]",–,demonstrated binding to PBP-lipo,filamentous shapes with an elongated cell length,"44,794 (−) Da",–,–,–,–,1,57.7 µM,1.6,"39,492 (+278) Da",–
"C[C@@H](O)[C@H]1C(=O)N2C(C(=O)O)=C(SCCN=CN)C[C@H]12 [Imipenem, imipenem]",–,demonstrated binding to PBP-lipo,filamentous shapes with an elongated cell length,"44,794 (−) Da",8 µg/mL,2 µg/mL,4 µg/mL,4 µg/mL,0.4 (27),–,1.3 (9),"39,515 (+299) Da",1.34 µM
"C[C@@H](O)[C@H]1C(=O)N2C(C(=O)O)=C(S[C@H]3CC[S@@+]([O-])C3)S[C@H]12 [Sulopenem, sulopenem]",–,demonstrated binding to PBP-lipo,filamentous shapes with an elongated cell length,"45,143 (+349) Da",1 µg/mL,0.25 µg/mL,0.5 µg/mL,1 µg/mL,0.7,8.3 µM,0.1,"39,298 (+86) Da",–
"C[C@@H](O)[C@H]1C(=O)N2C(C(=O)O)=C(SC3CN(C4=NCCS4)C3)[C@H](C)[C@H]12 [Tebipenem, tebipenem]",–,–,–,"44,794 (−) Da",8 µg/mL,1 µg/mL,2 µg/mL,1 µg/mL,243,0.0183 µM,0.01,"39,602 (+386) Da",–

# Reference: publication PMC11823594, “Durlobactam in combination with β-lactams to combat Mycobacterium abscessus” (Antimicrobial Agents and Chemotherapy, 2024)
